# Assay results from patent publication US10307413B2, “Tetrahydro- and dihydro-isoquinoline PRMT5 inhibitors and uses thereof” (Epizyme, Inc., priority 2013, dated 2019).
# Read-outs that look alike come from different tables or passages of the source.
# Tests used:
# [1] = test system: symmetric di-methyl arginine in Z-138 cells; assay: Z-138 Methylation Assay (In Cell Western for symmetric di-methyl arginine and DNA content); assay type: cell-based; conditions: read-out: ICW EC50
# Description: [formula] [formula] Where top and bottom are the normally allowed to float, but may be fixed at 100 or 0 respectively in a 3-parameter fit. The Hill Coefficient normally allowed to float but may also be fixed at 1 in a 3-parameter fit. Y is the % inhibition and X is the compound concentration.
# RPMI/Glutamax medium, penicillin-streptomycin, heat inactivated fetal bovine serum, and D-PBS were purchased from Life Technologies, Grand Island, N.Y., USA. Odyssey blocking buffer, 800CW goat anti-rabbit IgG (H+L) antibody, and Licor Odyssey infrared scanner were purchased from Licor Biosciences, Lincoln, Nebr., USA. Symmetric di-methyl arginine antibody was purchased from EMD Millipore, Billerica, Mass., USA. 16% Paraformaldehyde was purchased from Electron Microscopy Sciences, Hatfield, Pa., USA.
# Cell Treatment, in Cell Western (ICW) for Detection of Symmetric Di-Methyl Arginine and DNA Content.
# Z-138 cells were seeded in assay medium at a concentration of 50,000 cells per mL to a 384-well cell culture plate with 50 μL per well. Compound (100 nL) from 384 well source plates was added directly to 384 well cell plate. Plates were incubated at 37° C., 5% CO2 for 96 hours. […] Plates were incubated at room temperature for 30 minutes then incubated at 37° C., 5% CO2 for 5 hours. After the incubation, 40 μL per well of 8% paraformaldehyde in PBS (16% paraformaldahyde was diluted to 8% in PBS) was added to each plate and incubated for 30 minutes. […] Next 30 μL per well of Odyssey blocking buffer were added to each plate and incubated 1 hour at room temperature. Blocking buffer was removed and 20 μL per well of primary antibody was added (symmetric di-methyl arginine diluted 1:100 in Odyssey buffer with 0.1% Tween 20 (v/v)) and plates were incubated overnight (16 hours) at 4° C. Plates were washed 5 times with 100 μL per well of wash buffer. Next 20 μL per well of secondary antibody was added (1:200 800CW goat anti-rabbit IgG (H+L) antibody, 1:1000 DRAQ5 (Biostatus limited) in Odyssey buffer with 0.1% Tween 20 (v/v)) and incubated for 1 hour at room temperature. The plates were washed 5 times with 100 μL per well wash buffer then 1 time with 100 μL per well of water. Plates were allowed to dry at room temperature then imaged on the Licor Odyssey machine which measures integrated intensity at 700 nm and 800 nm wavelengths. Both 700 and 800 channels were scanned.
# First, the ratio for each well was determined by:
# Each plate included fourteen control wells of DMSO only treatment (minimum inhibition) as well as fourteen control wells for maximum inhibition treated with 3 μM of a reference compound (Background wells). The average of the ratio values for each control type was calculated and used to determine the percent inhibition for each test well in the plate. Reference compound was serially diluted three-fold in DMSO for a total of nine test concentrations, beginning at 3 μM. Percent inhibition was determined and IC50 curves were generated using triplicate wells per concentration of compound. Percent Inhibition=100−
# Z-138 cell line = assay: Z-138 Proliferation Assay (Cell Titer Glo, 5 days); assay type: cell-based; conditions: Homo sapiens, read-out: Proliferation EC50
# Description: RPMI/Glutamax medium, penicillin-streptomycin, heat inactivated fetal bovine serum were purchased from Life Technologies, Grand Island, N.Y., USA. V-bottom polypropylene 384-well plates were purchased from Greiner Bio-One, Monroe, N.C., USA. Cell culture 384-well white opaque plates were purchased from Perkin Elmer, Waltham, Mass., USA. Cell-Titer Glo® was purchased from Promega Corporation, Madison, Wis., USA. SpectraMax M5 plate reader was purchased from Molecular Devices LLC, Sunnyvale, Calif., USA.
# A compound source plate was prepared by performing triplicate nine-point 3-fold serial dilutions in DMSO, beginning at 10 mM (final top concentration of compound in the assay was 20 μM and the DMSO was 0.2%). A 100 nL aliquot from the compound stock plate was added to its respective well in the cell plate. […] After addition of compounds, assay plates were incubated for 5 days at 37° C., 5% CO2, relative humidity >90%.
# Cell viability was measured by quantitation of ATP present in the cell cultures, adding […] of Cell Titer Glo® reagent to the cell plates. Luminescence was read in the SpectraMax M5 microplate reader. The concentration of compound inhibiting cell viability by 50% was determined using a 4-parametric fit of the normalized dose response curves.
EC50 ([1]; Homo sapiens),EC50 [1],Compound,"EC50 (Z-138 cell line; 120 h, Z-138 cells, 5 days)","EC50 (Z-138 cell line; Z-138, 120 h)"
< 0.1 µM,–,O=C(NC[C@H](O)CN1CCc2ccccc2C1)c1ccnc(OC2CCNCC2)c1 [Compound 229],1 to 10 µM,–
0.101 to 1 µM,–,CN1CCC(Nc2cccc(C(=O)NCC(O)CN3CCc4ccccc4C3)c2)CC1 (centres unmarked) [Compound 123],1 to 10 µM,–
< 0.1 µM,–,CS(=O)(=O)N1CCC(Oc2ccc(C(=O)NCC(O)CN3CCc4ccccc4C3)cc2)CC1 (centres unmarked) [Compound 108],0.101 to 1 µM,–
0.101 to 1 µM,–,O=C(NCC(O)CN1CCc2ccccc2C1)c1cccc(CN2CCNCC2)c1 (centres unmarked) [Compound 29],1 to 10 µM,–
0.101 to 1 µM,–,O=C(NC[C@H](O)CN1CCc2ccccc2C1)c1cccc2[nH]cnc12 [Compound 241],1 to 10 µM,–
–,–,O=C(O)CCCN1CCN(Cc2cccc(C(=O)NCC(O)CN3CCc4ccccc4C3)c2)CC1 (centres unmarked) [Compound 158],> 20 µM,–
< 0.1 µM,–,O=C(NC[C@H](O)CN1CCc2ccccc2C1)c1cncc(NC2CCN(CC(F)(F)F)CC2)c1 [Compound 300],1 to 10 µM,–
0.101 to 1 µM,–,O=C(NCC(O)CN1CCc2ccccc2C1)c1ccc2c(c1)OCCN2 (centres unmarked) [Compound 88],> 20 µM,–
0.101 to 1 µM,–,O=C(NCC(O)CN1CCc2ccccc2C1)c1cccc(CN2CCN(CCO)CC2)c1 (centres unmarked) [Compound 113],10 to 50 µM,–
< 0.1 µM,–,CN(c1cc(C(=O)NC[C@H](O)CN2CCc3ccccc3C2)ccn1)C1CCOCC1 [Compound 324],0.101 to 1 µM,–
< 0.1 µM,–,CN(C)CCOc1cc(C(=O)NC[C@H](O)CN2CCc3ccccc3C2)ccn1 [Compound 234],1 to 10 µM,–
< 0.1 µM,–,O=C(NCC(O)CN1CCc2ccccc2C1)c1cccc(NC2CCN(CC(F)(F)F)CC2)c1 (centres unmarked) [Compound 126],1 to 10 µM,–
< 0.1 µM,–,Cc1c(NC2CCOCC2)ncnc1C(=O)NC[C@H](O)CN1CCc2ccccc2C1 [Compound 231],1 to 10 µM,–
< 0.1 µM,–,Cc1cnc(NC2CCOCC2)cc1C(=O)NC[C@H](O)CN1CCc2ccccc2C1 [Compound 307],0.101 to 1 µM,–
< 0.1 µM,–,C[C@@H]1COCCC1Nc1cccc(C(=O)NC[C@H](O)CN2CCc3ccccc3C2)c1 (some centres unmarked) [Compound 212],0.101 to 1 µM,–
< 0.1 µM,–,COCCN1CCC(Oc2ccc(C(=O)NC[C@H](O)CN3CCc4ccccc4C3)cc2)CC1 [Compound 329],0.101 to 1 µM,–
< 0.1 µM,–,Cc1ccc(NC2CCOC2)cc1C(=O)NCC(O)CN1CCc2ccccc2C1 (centres unmarked) [Compound 96],1 to 10 µM,–
0.101 to 1 µM,–,CN1CCN(Cc2cccc(C(=O)NCC(O)CN3CCc4ccccc4C3)c2)C(CO)C1 (centres unmarked) [Compound 115],> 20 µM,–
< 0.1 µM,–,"Cc1ccc2cc(C(=O)NC[C@H](O)CN3CCc4ccccc4C3)ccc2n1 [Compound 221, (S)—N-(3-(3,4-dihydroisoquinolin-2(1H)-yl)-2-hydroxypropyl)-2-methylquinoline-6-carboxamide]",0.101 to 1 µM,–
0.101 to 1 µM,–,O=C(NCC(O)CN1CCc2ccccc2C1)c1ncc[nH]1 (centres unmarked) [Compound 170],> 20 µM,–
< 0.1 µM,–,O=C(NCC(O)CN1CCc2ccccc2C1)c1ccc(OC2CCNCC2)cc1 (centres unmarked) [Compound 104],1 to 10 µM,–
< 0.1 µM,–,CC(=O)N1CCC(Nc2cc(C(=O)NC[C@H](O)CN3CCc4ccccc4C3)ncn2)C1 (some centres unmarked) [Compound 210],0.101 to 1 µM,–

EC50 ([1]; Homo sapiens),EC50 [1],Compound,"EC50 (Z-138 cell line; 120 h, Z-138 cells, 5 days)","EC50 (Z-138 cell line; Z-138, 120 h)"
0.101 to 1 µM,–,O=C(NC[C@H](O)CN1CCc2ccccc2C1)c1c[nH]c2ccccc12 [Compound 240],> 20 µM,–
0.101 to 1 µM,–,"CN(C)CCOc1cccc(C(=O)NCC(O)CN2CCc3ccccc3C2)c1 (centres unmarked) [Compound 28, N-(3-(3,4-dihydroisoquinolin-2(1H)-yl)-2-hydroxypropyl)-3-(2-(dimethylamino)ethoxy)benzamide]",10 to 50 µM,–
< 0.1 µM,–,CS(=O)(=O)N1CCC(Oc2cccc(C(=O)NCC(O)CN3CCc4ccccc4C3)c2)C1 (centres unmarked) [Compound 162],1 to 10 µM,–
< 0.1 µM,–,O=C(NC[C@@H](O)CN1CCc2ccccc2C1)c1ccnc(NC2CCOCC2)c1 [Compound 184],1 to 10 µM,–
0.101 to 1 µM,–,CN1CCN(Cc2cccc(C(=O)NCC(O)CN3CCc4ccccc4C3)c2)CC1CO (centres unmarked) [Compound 253],1 to 10 µM,–
< 0.1 µM,–,CC(C)N1CCC(Oc2ccc(C(=O)NCC(O)CN3CCc4ccccc4C3)cc2)CC1 (centres unmarked) [Compound 106],0.101 to 1 µM,–
< 0.1 µM,–,CC(=O)N(C)CCNc1cc(C(=O)NC[C@H](O)CN2CCc3ccccc3C2)ccn1 [Compound 315],0.101 to 1 µM,–
< 0.1 µM,–,"CC(=O)N1CC(Nc2cc(C(=O)NC[C@H](O)CN3CCc4ccccc4C3)ncn2)C1 [Compound 284, (S)-6-((1-acetylazetidin-3-yl)amino)-N-(3-(3,4-dihydroisoquinolin-2(1H)-yl)-2-hydroxypropyl)pyrimidine-4-carboxamide]",< 0.1 µM,–
< 0.1 µM,–,CN(C)CCCOc1ccc(C(=O)NCC(O)CN2CCc3ccccc3C2)cc1 (centres unmarked) [Compound 178],1 to 10 µM,–
< 0.1 µM,–,CN1CCC(Oc2ccc(C(=O)NCC(O)CN3CCc4ccccc4C3)cc2)C1 (centres unmarked) [Compound 177],1 to 10 µM,–
< 0.1 µM,–,O=C(NCC(O)CN1CCc2ccccc2C1)c1cccc(CC2CCOCC2)c1 (centres unmarked) [Compound 59],0.101 to 1 µM,–
< 0.1 µM,–,CS(=O)(=O)N1CCC(Oc2ccc(C(=O)NCC(O)CN3CCc4ccccc4C3)cc2)C1 (centres unmarked) [Compound 198],0.101 to 1 µM,–
0.101 to 1 µM,–,O=C(NC[C@@H](O)CN1CCc2ccccc2C1)c1cccc(OC2CCOCC2)c1 [Compound 83],–,–
–,–,CN1CCC(Oc2cccc(C(=O)NCC(O)CN3CCc4ccccc4C3)c2)C1 (centres unmarked) [Compound 134],10 to 50 µM,–
0.101 to 1 µM,–,O=C(NCC(O)CN1CCc2ccccc2C1)c1cncc(NC2CCOCC2)n1 (centres unmarked) [Compound 75],–,–
0.101 to 1 µM,–,O=C(NCC(O)CN1CCc2ccccc2C1)c1cccc(NCCN2CCOCC2)c1 (centres unmarked) [Compound 61],–,–
0.101 to 1 µM,–,"O=C(NCC(O)CN1CCc2ccccc2C1)c1cccc(NC2CCOC2)c1 (centres unmarked) [Compound 45, N-(3-(3,4-dihydroisoquinolin-2(1H)-yl)-2-hydroxypropyl)-3-((tetrahydrofuran-3-yl)amino)benzamide]",–,–
1 to 10 µM,–,CC1=NN(c2ccc(C(=O)NCC(O)CN3CCc4ccccc4C3)cc2)C(=O)C1 (centres unmarked) [Compound 86],–,–
0.101 to 1 µM,–,O=C(NCC(O)CN1CCc2ccccc2C1)c1nccc(NC2CCOCC2)n1 (centres unmarked) [Compound 76],–,–
–,–,"O=C(NC[C@H](O)CN1CCc2ccccc2C1)c1cccc(NC2CCOCC2)c1 [Compound 44, (S)—N-(3-(3,4-dihydroisoquinolin-2(1H)-yl)-2-hydroxypropyl)-3-((tetrahydro-2H-pyran-4-yl)amino)benzamide]",0.101 to 1 µM,–
1 to 10 µM,–,COCCNc1cccc(C(=O)NCC(O)CN2CCc3ccccc3C2)c1 (centres unmarked) [Compound 72],–,–
–,0.101 to 1 µM,O=C(NC[C@@H](O)CN1CCc2ccccc2C1)c1cc(NC2COC2)ncn1 [Compound 367],–,–

Compound,EC50 ([1]; Homo sapiens),EC50 [1],"EC50 (Z-138 cell line; 120 h, Z-138 cells, 5 days)","EC50 (Z-138 cell line; Z-138, 120 h)"
Cn1cc(C(=O)NC[C@H](O)CN2CCc3ccccc3C2)c2ccccc21 [Compound 246],0.101 to 1 µM,–,–,1 to 10 µM
"O=C(NC[C@@H](O)CN1CCc2ccccc2C1)Oc1ccccc1 [Compound 11, (R)-phenyl (3-(3,4-dihydroisoquinolin-2(1H)-yl)-2-hydroxypropyl)carbamate]",1 to 10 µM,–,–,–
